± gives the expanded uncertainty stated by the source.
Settings: for vapor or sublimation pressure: Liquid, Closed cell (Static) method; for mass density: Fluid (supercritical or subcritical phases), isochoric method

In the case of CC(C)O [propan-2-ol], the “vapor or sublimation pressure” value (301.24 K) is reported as 7 ± 1 kPa, the “vapor or sublimation pressure” value (314.26 K) is reported as 15 ± 1 kPa and the “vapor or sublimation pressure” value (314.29 K) is reported as 15 ± 1 kPa. The “vapor or sublimation pressure” value (314.52 K) was 15 ± 1 kPa, the “vapor or sublimation pressure” value (314.8 K) was 16 ± 1 kPa and the “vapor or sublimation pressure” value (315.05 K) was 16 ± 1 kPa. The “vapor or sublimation pressure” value (315.3 K) was 16 ± 1 kPa, the “vapor or sublimation pressure” value (315.42 K) was 16 ± 1 kPa and the “vapor or sublimation pressure” value (315.61 K) was 16 ± 1 kPa. The “vapor or sublimation pressure” value (315.8 K) was 17 ± 1 kPa, the “vapor or sublimation pressure” value (341.91 K) was 57 ± 1 kPa and the “vapor or sublimation pressure” value (342.03 K) was 57 ± 1 kPa. For the same compound, the “vapor or sublimation pressure” value (342.08 K) was 57 ± 1 kPa, the “vapor or sublimation pressure” value (342.2 K) was 57 ± 1 kPa and the “vapor or sublimation pressure” value (342.32 K) was 58 ± 1 kPa. The “vapor or sublimation pressure” value (342.49 K) was 58 ± 1 kPa, the “vapor or sublimation pressure” value (342.67 K) was 58 ± 1 kPa and the “vapor or sublimation pressure” value (342.79 K) was 59 ± 1 kPa. The “vapor or sublimation pressure” value (342.91 K) was 59 ± 1 kPa, the “vapor or sublimation pressure” value (343.03 K) was 59 ± 1 kPa and the “vapor or sublimation pressure” value (369.05 K) was 169 ± 2 kPa. The “vapor or sublimation pressure” value (369.13 K) was 169 ± 2 kPa, the “vapor or sublimation pressure” value (369.16 K) was 169 ± 2 kPa and the “vapor or sublimation pressure” value (369.28 K) was 170 ± 2 kPa. The “vapor or sublimation pressure” value (369.39 K) was 171 ± 2 kPa, the “vapor or sublimation pressure” value (369.5 K) was 171 ± 2 kPa and the “vapor or sublimation pressure” value (369.67 K) was 172 ± 2 kPa. The “vapor or sublimation pressure” value (369.84 K) was 173 ± 2 kPa, the “vapor or sublimation pressure” value (369.96 K) was 174 ± 2 kPa and the “vapor or sublimation pressure” value (370.07 K) was 175 ± 2 kPa. For the same compound, the “vapor or sublimation pressure” value (391.32 K) was 358 ± 4 kPa, the “vapor or sublimation pressure” value (391.5 K) was 360 ± 4 kPa and the “vapor or sublimation pressure” value (391.53 K) was 360 ± 4 kPa. The “vapor or sublimation pressure” value (391.54 K) was 360 ± 4 kPa, the “vapor or sublimation pressure” value (391.65 K) was 362 ± 4 kPa and the “vapor or sublimation pressure” value (391.76 K) was 363 ± 4 kPa. For the same compound, the “vapor or sublimation pressure” value (391.87 K) was 364 ± 4 kPa, the “vapor or sublimation pressure” value (391.98 K) was 366 ± 4 kPa and the “vapor or sublimation pressure” value (392.09 K) was 367 ± 4 kPa. For the same compound, the “vapor or sublimation pressure” value (392.2 K) was 368 ± 4 kPa, the “vapor or sublimation pressure” value (416.55 K) was 732 ± 7 kPa and the “vapor or sublimation pressure” value (416.65 K) was 734 ± 7 kPa. The “vapor or sublimation pressure” value (416.73 K) was 736 ± 7 kPa, the “vapor or sublimation pressure” value (416.76 K) was 736 ± 7 kPa and the “vapor or sublimation pressure” value (416.86 K) was 739 ± 8 kPa. The “vapor or sublimation pressure” value (416.97 K) was 741 ± 8 kPa, the “vapor or sublimation pressure” value (417.08 K) was 743 ± 8 kPa and the “vapor or sublimation pressure” value (417.18 K) was 745 ± 8 kPa. The “vapor or sublimation pressure” value (417.29 K) was 747 ± 8 kPa, the “vapor or sublimation pressure” value (417.4 K) was 749 ± 8 kPa and the “vapor or sublimation pressure” value (417.5 K) was 756 ± 8 kPa. For the same compound, the “vapor or sublimation pressure” value (442.12 K) was 1367 ± 14 kPa, the “vapor or sublimation pressure” value (442.14 K) was 1368 ± 14 kPa and the “vapor or sublimation pressure” value (442.23 K) was 1371 ± 14 kPa. For the same compound, the “vapor or sublimation pressure” value (442.33 K) was 1374 ± 14 kPa, the “vapor or sublimation pressure” value (442.43 K) was 1377 ± 14 kPa and the “vapor or sublimation pressure” value (442.54 K) was 1381 ± 14 kPa. For the same compound, the “vapor or sublimation pressure” value (442.64 K) was 1383 ± 14 kPa, the “vapor or sublimation pressure” value (442.74 K) was 1386 ± 14 kPa and the “vapor or sublimation pressure” value (442.85 K) was 1389 ± 14 kPa. For the same compound, the “vapor or sublimation pressure” value (463.48 K) was 2136 ± 22 kPa, the “vapor or sublimation pressure” value (463.56 K) was 2140 ± 22 kPa and the “vapor or sublimation pressure” value (463.58 K) was 2141 ± 22 kPa. The “vapor or sublimation pressure” value (463.78 K) was 2149 ± 22 kPa, the “vapor or sublimation pressure” value (463.83 K) was 2152 ± 22 kPa and the “vapor or sublimation pressure” value (463.97 K) was 2158 ± 22 kPa. The “vapor or sublimation pressure” value (464.18 K) was 2166 ± 22 kPa, the “vapor or sublimation pressure” value (464.27 K) was 2171 ± 22 kPa and the “vapor or sublimation pressure” value (464.42 K) was 2177 ± 22 kPa. The “vapor or sublimation pressure” value (464.97 K) was 2201 ± 22 kPa, the “vapor or sublimation pressure” value (465.27 K) was 2213 ± 22 kPa and the “vapor or sublimation pressure” value (465.34 K) was 2217 ± 22 kPa. The “vapor or sublimation pressure” value (468.1 K) was 2330 ± 24 kPa, the “vapor or sublimation pressure” value (482.51 K) was 3081 ± 31 kPa and the “vapor or sublimation pressure” value (482.6 K) was 3085 ± 31 kPa. For the same compound, the “vapor or sublimation pressure” value (482.7 K) was 3089 ± 31 kPa, the “vapor or sublimation pressure” value (482.72 K) was 3090 ± 31 kPa and the “vapor or sublimation pressure” value (482.8 K) was 3093 ± 31 kPa. The “vapor or sublimation pressure” value (482.89 K) was 3098 ± 31 kPa, the “vapor or sublimation pressure” value (482.99 K) was 3102 ± 31 kPa and the “vapor or sublimation pressure” value (483.09 K) was 3106 ± 31 kPa. For the same compound, the “vapor or sublimation pressure” value (483.18 K) was 3110 ± 31 kPa, the “vapor or sublimation pressure” value (500.85 K) was 4213 ± 43 kPa and the “vapor or sublimation pressure” value (500.95 K) was 4219 ± 43 kPa. For the same compound, the “vapor or sublimation pressure” value (501.04 K) was 4224 ± 43 kPa, the “vapor or sublimation pressure” value (501.08 K) was 4226 ± 43 kPa and the “vapor or sublimation pressure” value (501.14 K) was 4229 ± 43 kPa. The “vapor or sublimation pressure” value (501.23 K) was 4235 ± 43 kPa, the “vapor or sublimation pressure” value (501.33 K) was 4240 ± 43 kPa and the “vapor or sublimation pressure” value (501.42 K) was 4245 ± 43 kPa. The “vapor or sublimation pressure” value (501.53 K) was 4251 ± 43 kPa, the “vapor or sublimation pressure” value (501.62 K) was 4256 ± 43 kPa and the “vapor or sublimation pressure” value (501.81 K) was 4267 ± 43 kPa. For the same compound, the “vapor or sublimation pressure” value (501.9 K) was 4272 ± 43 kPa, the “vapor or sublimation pressure” value (503.92 K) was 4428 ± 45 kPa and the “vapor or sublimation pressure” value (504.02 K) was 4438 ± 45 kPa. For the same compound, the “vapor or sublimation pressure” value (504.03 K) was 4436 ± 45 kPa, the “vapor or sublimation pressure” value (504.11 K) was 4366 ± 45 kPa and the “vapor or sublimation pressure” value (504.31 K) was 4456 ± 45 kPa. The “vapor or sublimation pressure” value (504.5 K) was 4470 ± 45 kPa, the “vapor or sublimation pressure” value (504.59 K) was 4477 ± 45 kPa and the “vapor or sublimation pressure” value (504.98 K) was 4504 ± 46 kPa. For the same compound, the “vapor or sublimation pressure” value (505.06 K) was 4521 ± 46 kPa, the “vapor or sublimation pressure” value (505.08 K) was 4522 ± 46 kPa and the “vapor or sublimation pressure” value (505.27 K) was 4536 ± 46 kPa. For the same compound, the “vapor or sublimation pressure” value (505.37 K) was 4544 ± 46 kPa, the “vapor or sublimation pressure” value (506.43 K) was 4667 ± 47 kPa and the “vapor or sublimation pressure” value (506.53 K) was 4675 ± 47 kPa. For the same compound, the “vapor or sublimation pressure” value (506.61 K) was 4648 ± 47 kPa, the “vapor or sublimation pressure” value (506.62 K) was 4682 ± 47 kPa and the “vapor or sublimation pressure” value (506.72 K) was 4690 ± 47 kPa. The “vapor or sublimation pressure” value (506.82 K) was 4697 ± 48 kPa, the “vapor or sublimation pressure” value (506.96 K) was 4708 ± 48 kPa and the “vapor or sublimation pressure” value (506.97 K) was 4709 ± 48 kPa. For the same compound, the “vapor or sublimation pressure” value (507.11 K) was 4720 ± 48 kPa, the “vapor or sublimation pressure” value (507.2 K) was 4727 ± 48 kPa and the “vapor or sublimation pressure” value (507.3 K) was 4735 ± 48 kPa. For the same compound, the “vapor or sublimation pressure” value (507.4 K) was 4743 ± 48 kPa, the “vapor or sublimation pressure” value (507.5 K) was 4750 ± 48 kPa and the “vapor or sublimation pressure” value (507.59 K) was 4757 ± 48 kPa. The “vapor or sublimation pressure” value (507.69 K) was 4765 ± 48 kPa, the “vapor or sublimation pressure” value (507.79 K) was 4773 ± 48 kPa and the “vapor or sublimation pressure” value (507.89 K) was 4781 ± 48 kPa. The “vapor or sublimation pressure” value (508.04 K) was 4793 ± 49 kPa, the mass density (508.16 K, 4803 kPa) was 329.2 ± 0.7 kg/m3 and the “vapor or sublimation pressure” value (508.16 K) was 4803 ± 49 kPa. The mass density (508.18 K, 4804 kPa) was 329.2 ± 0.7 kg/m3, the mass density (508.28 K, 4813 kPa) was 329.2 ± 0.7 kg/m3 and the mass density (508.37 K, 4822 kPa) was 329.2 ± 0.7 kg/m3. For the same compound, the mass density (508.47 K, 4831 kPa) was 329.2 ± 0.7 kg/m3, the mass density (508.57 K, 4840 kPa) was 329.2 ± 0.7 kg/m3 and the mass density (508.67 K, 4849 kPa) was 329.2 ± 0.7 kg/m3. For the same compound, the mass density (508.76 K, 4858 kPa) was 329.2 ± 0.7 kg/m3, the mass density (509.35 K, 4911 kPa) was 329.2 ± 0.7 kg/m3 and the mass density (509.45 K, 4920 kPa) was 329.2 ± 0.7 kg/m3. The mass density (509.5 K, 5095 kPa) was 329.2 ± 0.7 kg/m3, the mass density (509.55 K, 4929 kPa) was 329.2 ± 0.7 kg/m3 and the mass density (509.64 K, 4938 kPa) was 329.2 ± 0.7 kg/m3. The mass density (509.79 K, 4951 kPa) was 329.2 ± 0.7 kg/m3, the mass density (509.99 K, 4967 kPa) was 329.2 ± 0.7 kg/m3 and the mass density (510.14 K, 4981 kPa) was 329.2 ± 0.7 kg/m3. It also gave a mass density (510.23 K, 4990 kPa) of 329.2 ± 0.7 kg/m3, a mass density (510.33 K, 4999 kPa) of 329.2 ± 0.7 kg/m3 and a mass density (510.48 K, 5012 kPa) of 329.2 ± 0.7 kg/m3. It also gave a mass density (510.93 K, 5271 kPa) of 329.2 ± 0.7 kg/m3, a mass density (516.9 K, 5603 kPa) of 329.2 ± 0.7 kg/m3 and a mass density (516.99 K, 5611 kPa) of 329.2 ± 0.7 kg/m3. The mass density (517.08 K, 5619 kPa) was 329.2 ± 0.7 kg/m3, the mass density (517.27 K, 5637 kPa) was 329.2 ± 0.7 kg/m3 and the mass density (521.87 K, 6056 kPa) was 329.2 ± 0.7 kg/m3. For the same compound, the mass density (521.96 K, 6064 kPa) was 329.2 ± 0.7 kg/m3, the mass density (522.14 K, 6080 kPa) was 329.2 ± 0.7 kg/m3 and the mass density (522.33 K, 6397 kPa) was 329.2 ± 0.7 kg/m3. It also gave a mass density (522.42 K, 6405 kPa) of 329.2 ± 0.7 kg/m3, a mass density (522.51 K, 6414 kPa) of 329.2 ± 0.7 kg/m3 and a mass density (522.6 K, 6495 kPa) of 329.2 ± 0.7 kg/m3.

Source: the NIST ThermoML archive (doi:10.1016/j.jct.2018.12.009)
